Where two headings read alike, the source gives them in different places.
How the values were obtained:
[1] = target: T1, NKA receptor (Cavia porcellus, UniProt Q64077); assay: Activity to constriction of guinea pig respiratory tracts caused by NKA (in vivo, excess air amount); conditions: anesthetized guinea pigs, cervical vein; for Controlling rate (%) 1 min: 2 nmol/kg NKA given 1 min after test compound; for Controlling rate (%) 15 min: 2 nmol/kg NKA given 15 min after test compound
T1 construct: Male Hartley strain guinea pigs having a body weight of 350 to 500 g were anesthetized; from tissue; host or cells: whole anaesthetized guinea pig (airways, in vivo)
T1 sequence (Q64077 1-402): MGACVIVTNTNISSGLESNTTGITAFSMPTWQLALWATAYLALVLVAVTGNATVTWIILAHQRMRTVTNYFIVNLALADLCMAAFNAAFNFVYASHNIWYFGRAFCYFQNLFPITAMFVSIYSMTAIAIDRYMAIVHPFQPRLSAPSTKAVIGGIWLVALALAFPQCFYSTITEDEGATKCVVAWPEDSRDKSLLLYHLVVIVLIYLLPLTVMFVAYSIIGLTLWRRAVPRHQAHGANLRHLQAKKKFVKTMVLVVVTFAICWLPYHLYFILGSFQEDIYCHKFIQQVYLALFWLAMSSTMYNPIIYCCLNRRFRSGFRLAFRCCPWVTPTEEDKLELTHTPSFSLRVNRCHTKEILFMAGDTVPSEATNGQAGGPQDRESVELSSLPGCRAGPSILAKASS
Description: (2) Activity to constriction of guinea pig respiratory tracts caused by NKA
Male Hartley strain guinea pigs having a body weight of 350 to 500 g were anesthetized by administering 1.5 g/kg of urethane into abdominal cavities thereof. Cannulas made of polyethylene were inserted into cervical veins and respiratory tracts. From the cervical vein cannulas, 1 mg of gallamine was administered to stop respiration. The respiratory tract cannulas were connected to a respirator, and artificial respiration was carried out with an air-supplying amount at one time of 4 to 6 ml and an air-supplying frequency of 70 times/min. Side branches of the respiratory tract cannulas were introduced into a water tank, and a hydraulic pressure of 8 cm H2 O was loaded. Excess air amounts exceeding the above hydraulic pressure and discharged were measured. From the cervical vein cannulas, 2 nmol/kg of NKA was administered, each compound to be tested was administered after 15 minutes, and further 2 nmol/kg of NKA was administered after 1, 15, 30, 45 and 60 minutes, respectively. The increased amounts of excess air after the respective NKA administrations were measured, and percentages relative to the increased amounts of excess air when the respiratory tracts were completely closed were determined, which were defined as respiratory constriction rates. The decreased ratios of the respiratory constriction rates after administering the compounds to be tested to the respiratory constriction rates before administering the compounds to be tested were shown by percentages, which were defined as controlling rates. The controlling rates were regarded as an effect of the compound to be tested as an antagonist.

[2] = target: T2, NKA receptor (Mesocricetus auratus, UniProt P51144); assay: Activity to constriction of hamster respiratory tracts caused by NKA (isolated tissue, tension); format: cell-based
T2 construct: from tissue; host or cells: hamster respiratory tract (trachea) ring specimens
T2 sequence (P51144 1-384): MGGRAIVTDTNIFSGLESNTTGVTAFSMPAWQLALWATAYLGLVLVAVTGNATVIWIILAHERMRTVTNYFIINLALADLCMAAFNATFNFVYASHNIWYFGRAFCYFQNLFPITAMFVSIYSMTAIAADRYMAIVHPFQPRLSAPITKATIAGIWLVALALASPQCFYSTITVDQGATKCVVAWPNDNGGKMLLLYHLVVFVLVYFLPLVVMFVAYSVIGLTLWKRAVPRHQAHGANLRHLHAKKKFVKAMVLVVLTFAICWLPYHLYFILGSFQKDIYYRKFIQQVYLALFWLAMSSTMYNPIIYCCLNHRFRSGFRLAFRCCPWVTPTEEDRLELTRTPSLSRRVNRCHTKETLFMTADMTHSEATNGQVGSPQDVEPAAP
Description: The activity of the azapeptide derivative of the present invention to a NKA receptor was evaluated by the following method.
(1) Activity to constriction of hamster respiratory tracts caused by NKA
Respiratory tracts were taken out from male Syrian strain Golden hamsters having a body weight of 100 to 180 g, and cyclic specimens having a width of 3 to 6 mm were prepared. The specimens were incubated at 37° C. and suspended by loading a static tension of 0.5 g, in a reaction tank charged with 15 ml of a Tyrode solution (137 mM of NaCl, 2.7 mM of KCl, 1.8 mM of CaCl2, 1.02 mM of MgCl2, 11.9 mM of NaHCO3, 0.42 mM of NaH2 PO4 and 5.5 mM of glucose) in which 95% O2 -5% CO2 had been passed.
The compound to be tested was charged into the reaction tank and maintained for 5 minutes. 1×10^-7 M of NKA was charged into the reaction tank, and tension caused thereby was recorded. The examined effect of the tested compound as an antagonist was shown by IC50.

IC50 ([2]; mole concentration giving 50% control of tension caused by 1×10^-7 M NKA, compound maintained 5 minutes, hamster respiratory tract specimens, read-out: IC50) [nM] | Molecule | Controlling rate (%) 1 min [1] [%] | Controlling rate (%) 15 min [1] [%] | Controlling rate (%) 30 min ([1]; 2 nmol/kg NKA given 30 min after test compound) [%] | Controlling rate (%) 45 min ([1]; 2 nmol/kg NKA given 45 min after test compound) [%] | Controlling rate (%) 60 min ([1]; 2 nmol/kg NKA given 60 min after test compound) [%] | IC50 [2] [nM]
22 | Ac-LDQWFG-NH2 [Reference example 13, Ac-Leu-Asp-Gln-Trp-Phe-Gly-NH2, reference compound] | 11.9 | 3.9 | – | – | – | –
– | NC(=O)C[C@H](NC(=O)OCc1ccccc1)C(=O)N[C@@H](Cc1c[nH]c2ccccc12)C(=O)NN(Cc1ccccc1)C(=O)NCCOCc1ccccc1 [Example 12, Z-Asn-Trp-AzPhe-NH(CH2)2 OCH2 Ph] | 19.5 | 73.2 | 62.2 | 54.8 | 51.7 | 4.5
– | Cc1ccc(C)c(CN(NC(=O)[C@H](Cc2c[nH]c3ccccc23)NC(=O)[C@H](CCC(N)=O)NC(=O)NC(C)(C)C)C(=O)NCCOCc2ccccc2)c1 [Example 38 (3), t-Bu-NHCO-Gln-Trp-AzPhe(2,5-diMe)-NH(CH2)2 OCH2 Ph] | – | – | – | – | – | 0.68

— patent US5837687A, “Azapeptide derivative” (Fujirebio Inc., priority 1994, dated 1998)
